“And” between values parts separate entries of the source, which are not always exact repeats. Equal entries are not always repeated.
Key:
[1] = test system: SETVI; test: Postemergence herbicidal evaluation; type: in vivo
[2] = test system: TRZAWR; test: Postemergence herbicidal evaluation; type: in vivo
[3] = test system: ORYSAT; test: Preemergence herbicidal evaluation; type: in vivo, Oryza sativa; set-up: scale not given here
[4] = test system: ZEAMX; test: Postemergence herbicidal evaluation; type: in vivo
[5] = test system: ECHCG; test: Postemergence herbicidal evaluation; type: in vivo
[6] = test system: CHEAL; test: Postemergence herbicidal evaluation; type: in vivo
[7] = test system: GLXMA; test: Postemergence herbicidal evaluation; type: in vivo
[8] = test system: IPOSS; test: Postemergence herbicidal evaluation; type: in vivo
[9] = test system: GLXMA; test: Preemergence herbicidal evaluation; type: in vivo
Experimental: The preemergence and postemergence herbicidal properties of certain compounds of the present invention are compared with certain compounds disclosed in U.S. Pat. Nos. 5,484,763 and 5,523,278. The evaluations are performed as described in Examples 185 and 186. Data in Tables V and VI are reported by the compound number given in Example 185 for the compounds of this invention or by comparative compound letter for the compounds disclosed in U.S. Pat. Nos. 5,484,763 and 5,523,278.

[10] = test system: ECHCG; test: Preemergence herbicidal evaluation; type: in vivo; set-up: scale not given here
[11] = test system: TRZAWR; test: Preemergence herbicidal evaluation; type: in vivo; set-up: scale not given here
[12] = test system: CHEAL; test: Preemergence herbicidal evaluation; type: in vivo; set-up: scale not given here
[13] = test system: CASOB; test: Preemergence herbicidal evaluation; type: in vivo; set-up: scale not given here
[14] = test system: AMBEL; test: Preemergence herbicidal evaluation; type: in vivo; set-up: scale not given here
[15] = test system: IPOSS; test: Preemergence herbicidal evaluation; type: in vivo; set-up: scale not given here
[16] = test system: SETVI; test: Preemergence herbicidal evaluation; type: in vivo; set-up: scale not given here
[17] = test system: ZEAMX; test: Preemergence herbicidal evaluation; type: in vivo; set-up: scale not given here
[18] = test system: GALAP; test: Preemergence herbicidal evaluation; type: in vivo; set-up: scale not given here
[19] = test system: ABUTH; test: Preemergence herbicidal evaluation; type: in vivo; set-up: scale not given here
[20] = test system: ABUTH; test: Postemergence herbicidal evaluation; type: in vivo
[21] = test system: GALAP; test: Postemergence herbicidal evaluation; type: in vivo
[22] = test system: CASOB; test: Postemergence herbicidal evaluation; type: in vivo

SMILES: Cc1nsc2ccc(-n3c(=O)cc(C(F)(F)F)n(C)c3=O)cc12 [Compound 6, 1-Methyl-3-(3-methyl-1,2-benzisothiazol-5-yl)-6-(trifluoromethyl)-2,4(1H,3H)-pyrimidinedione]
- herbicidal effect rating ([1]; 0.1250 kg/ha): 9.0
- herbicidal effect rating ([1]; 0.2500 kg/ha): 9.0
- herbicidal effect rating ([1]; 0.5000 kg/ha): 9.0
- herbicidal effect rating ([2]; 0.0625-0.0640 kg/ha): 3.0 and 1.5 and 2.0
- herbicidal effect rating ([2]; 0.1250 kg/ha): 2.5
- herbicidal effect rating ([2]; 0.2500 kg/ha): 5.0
- herbicidal effect rating ([2]; 0.5000 kg/ha): 6.0
- herbicidal effect rating ([3]; 0.0156-0.0160 kg/ha): 2.8 and 4.0
- herbicidal effect rating ([3]; 0.0313-0.0320 kg/ha): 4.4 and 7.0
- herbicidal effect rating ([3]; 0.0620-0.0630 kg/ha): 7.0
- herbicidal effect rating ([3]; 0.1250 kg/ha): 8.0
- herbicidal effect rating ([3]; 0.2500 kg/ha): 8.0
- herbicidal effect rating ([3]; 0.5000 kg/ha): 9.0
- herbicidal effect rating ([4]; 0.0157-0.0160 kg/ha): 3.5 and 4.0 and 2.0
- herbicidal effect rating ([4]; 0.0313-0.0320 kg/ha): 3.8 and 4.3 and 3.5
- herbicidal effect rating ([4]; 0.0625-0.0640 kg/ha): 5.0 and 4.5 and 3.5
- herbicidal effect rating ([4]; 0.1250 kg/ha): 3.5
- herbicidal effect rating ([4]; 0.2500 kg/ha): 3.5
- herbicidal effect rating ([4]; 0.5000 kg/ha): 3.0
- herbicidal effect rating ([5]; 0.0313-0.0320 kg/ha): 1.0 and 2.0
- herbicidal effect rating ([5]; 0.0625-0.0640 kg/ha): 3.0 and 1.5 and 2.0
- herbicidal effect rating ([5]; 0.1250 kg/ha): 7.0
- herbicidal effect rating ([5]; 0.2500 kg/ha): 6.0
- herbicidal effect rating ([5]; 0.5000 kg/ha): 7.0
- herbicidal effect rating ([6]; 0.0313-0.0320 kg/ha): 6.5 and 5.0 and 9.0
- herbicidal effect rating ([6]; 0.0625-0.0640 kg/ha): 9.0 and 7.0
- herbicidal effect rating ([6]; 0.1250 kg/ha): 9.0
- herbicidal effect rating ([6]; 0.2500 kg/ha): 9.0
- herbicidal effect rating ([6]; 0.5000 kg/ha): 9.0
- herbicidal effect rating ([7]; 0.0157-0.0160 kg/ha): 2.5 and 4.0
- herbicidal effect rating ([7]; 0.0313-0.0320 kg/ha): 5.0 and 4.0
- herbicidal effect rating ([7]; 0.0625-0.0640 kg/ha): 4.0
- herbicidal effect rating ([7]; 0.1250 kg/ha): 6.0
- herbicidal effect rating ([7]; 0.2500 kg/ha): 6.0
- herbicidal effect rating ([7]; 0.5000 kg/ha): 7.0
- herbicidal effect rating ([8]; 0.0157-0.0160 kg/ha): 7.5 and 7.0
- herbicidal effect rating ([8]; 0.0313-0.0320 kg/ha): 9.0 and 8.0
- herbicidal effect rating ([8]; 0.0625-0.0640 kg/ha): 9.0
- herbicidal effect rating ([8]; 0.1250 kg/ha): 9.0
- herbicidal effect rating ([8]; 0.2500 kg/ha): 9.0
- herbicidal effect rating ([8]; 0.5000 kg/ha): 9.0
- herbicidal effect rating ([9]; 0.0156-0.0160 kg/ha): 2.0
- herbicidal effect rating ([9]; 0.0313-0.0320 kg/ha): 2.0
- herbicidal effect rating ([9]; 0.0620-0.0630 kg/ha): 4.0
- herbicidal effect rating ([9]; 0.1250 kg/ha): 7.0
- herbicidal effect rating ([9]; 0.2500 kg/ha): 9.0
- herbicidal effect rating ([9]; 0.5000 kg/ha): 9.0
- herbicidal effect rating ([10]; 0.0313-0.0320 kg/ha): 5.6 and 8.0 and 4.5
- herbicidal effect rating ([10]; 0.0620-0.0630 kg/ha): 9.0 and 5.5
- herbicidal effect rating ([10]; 0.1250 kg/ha): 6.0
- herbicidal effect rating ([10]; 0.2500 kg/ha): 9.0
- herbicidal effect rating ([10]; 0.5000 kg/ha): 9.0
- herbicidal effect rating ([11]; 0.0156-0.0160 kg/ha): 3.0 and 3.5
- herbicidal effect rating ([11]; 0.0313-0.0320 kg/ha): 5.6 and 6.5 and 6.3
- herbicidal effect rating ([11]; 0.0620-0.0630 kg/ha): 7.0 and 8.3
- herbicidal effect rating ([11]; 0.1250 kg/ha): 8.7
- herbicidal effect rating ([11]; 0.2500 kg/ha): 8.0
- herbicidal effect rating ([11]; 0.5000 kg/ha): 9.0
- herbicidal effect rating ([12]; 0.0156-0.0160 kg/ha): 8.8 and 9.0 and 5.0
- herbicidal effect rating ([12]; 0.0313-0.0320 kg/ha): 9.0 and 8.0
- herbicidal effect rating ([12]; 0.0620-0.0630 kg/ha): 9.0
- herbicidal effect rating ([12]; 0.1250 kg/ha): 9.0
- herbicidal effect rating ([12]; 0.2500 kg/ha): 9.0
- herbicidal effect rating ([12]; 0.5000 kg/ha): 9.0
- herbicidal effect rating ([13]; 0.0313-0.0320 kg/ha): 6.0 and 9.0 and 4.5
- herbicidal effect rating ([13]; 0.0620-0.0630 kg/ha): 7.0 and 5.5
- herbicidal effect rating ([13]; 0.1250 kg/ha): 6.5
- herbicidal effect rating ([13]; 0.2500 kg/ha): 9.0
- herbicidal effect rating ([13]; 0.5000 kg/ha): 9.0
- herbicidal effect rating ([14]; 0.0313-0.0320 kg/ha): 7.4 and 9.0 and 4.5
- herbicidal effect rating ([14]; 0.0620-0.0630 kg/ha): 9.0 and 6.0
- herbicidal effect rating ([14]; 0.1250 kg/ha): 7.0
- herbicidal effect rating ([14]; 0.2500 kg/ha): 9.0
- herbicidal effect rating ([14]; 0.5000 kg/ha): 9.0
- herbicidal effect rating ([15]; 0.0156-0.0160 kg/ha): 7.5
- herbicidal effect rating ([15]; 0.0313-0.0320 kg/ha): 7.5 and 7.0
- herbicidal effect rating ([15]; 0.0620-0.0630 kg/ha): 7.0
- herbicidal effect rating ([15]; 0.1250 kg/ha): 9.0
- herbicidal effect rating ([15]; 0.2500 kg/ha): 9.0
- herbicidal effect rating ([15]; 0.5000 kg/ha): 9.0
- herbicidal effect rating ([16]; 0.0313-0.0320 kg/ha): 8.4 and 9.0 and 5.5
- herbicidal effect rating ([16]; 0.0620-0.0630 kg/ha): 9.0 and 6.0
- herbicidal effect rating ([16]; 0.1250 kg/ha): 9.0
- herbicidal effect rating ([16]; 0.2500 kg/ha): 9.0
- herbicidal effect rating ([16]; 0.5000 kg/ha): 9.0
- herbicidal effect rating ([17]; 0.0313-0.0320 kg/ha): 4.2 and 7.5 and 5.3
- herbicidal effect rating ([17]; 0.0620-0.0630 kg/ha): 8.0 and 6.0
- herbicidal effect rating ([17]; 0.1250 kg/ha): 6.5
- herbicidal effect rating ([17]; 0.2500 kg/ha): 9.0
- herbicidal effect rating ([17]; 0.5000 kg/ha): 9.0
- herbicidal effect rating ([18]; 0.0156-0.0160 kg/ha): 4.8 and 8.5
- herbicidal effect rating ([18]; 0.0313-0.0320 kg/ha): 5.3 and 8.5 and 9.0
- herbicidal effect rating ([18]; 0.0620-0.0630 kg/ha): 9.0
- herbicidal effect rating ([18]; 0.1250 kg/ha): 9.0
- herbicidal effect rating ([18]; 0.2500 kg/ha): 9.0
- herbicidal effect rating ([18]; 0.5000 kg/ha): 9.0
- herbicidal effect rating ([19]; 0.0313-0.0320 kg/ha): 9.0 and 4.5
- herbicidal effect rating ([19]; 0.0620-0.0630 kg/ha): 9.0
- herbicidal effect rating ([19]; 0.1250 kg/ha): 9.0
- herbicidal effect rating ([19]; 0.2500 kg/ha): 9.0
- herbicidal effect rating ([19]; 0.5000 kg/ha): 9.0
- herbicidal effect rating ([20]; 0.0157-0.0160 kg/ha): 5.7 and 5.0 and 8.0
- herbicidal effect rating ([20]; 0.0313-0.0320 kg/ha): 9.0
- herbicidal effect rating ([20]; 0.0625-0.0640 kg/ha): 9.0
- herbicidal effect rating ([20]; 0.1250 kg/ha): 9.0
- herbicidal effect rating ([20]; 0.2500 kg/ha): 9.0
- herbicidal effect rating ([20]; 0.5000 kg/ha): 9.0
- herbicidal effect rating ([21]; 0.0625-0.0640 kg/ha): 9.0 and 5.0
- herbicidal effect rating ([21]; 0.1250 kg/ha): 9.0
- herbicidal effect rating ([21]; 0.2500 kg/ha): 9.0
- herbicidal effect rating ([21]; 0.5000 kg/ha): 9.0
- herbicidal effect rating ([22]; 0.0157-0.0160 kg/ha): 0.0
- herbicidal effect rating ([22]; 0.0625-0.0640 kg/ha): 2.5 and 4.0
- herbicidal effect rating ([22]; 0.1250 kg/ha): 7.0
- herbicidal effect rating ([22]; 0.2500 kg/ha): 8.0
- herbicidal effect rating ([22]; 0.5000 kg/ha): 7.0
